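Tested at 5 concentrations; 48 h exposure; 96-well plates; endpoints linearly interpolated, else capped at highest concentration. GI50 = concentration required for 50% inhibition of growth.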 The source made the active and inactive calls. No stated cut-off is given here; in the data, active = GI50 up to about 1.1 µM and inactive = higher.
Key:
Experiment in all cases: inhibition of tumour cell growth, NCI panel, 48 h
RXF 393 = system: RXF 393
SF-539 = system: SF-539
M19-MEL = system: M19-MEL
A498 = system: A498
HCT-116 = system: HCT-116
UACC-257 = system: UACC-257
SNB-75 = system: SNB-75
OVCAR-4 = system: OVCAR-4
OVCAR-3 = system: OVCAR-3
UACC-62 = system: UACC-62
LOX IMVI = system: LOX IMVI
OVCAR-5 = system: OVCAR-5
M14 = system: M14
HCC 2998 = system: HCC 2998
NCI-H23 = system: NCI-H23
NCI-H460 = system: NCI-H460
SW-620 = system: SW-620

Measured: GI50

O=C(N/C(=C\c1ccc(/C=C(\NC(=O)c2ccccc2)c2nc3ccccc3s2)cc1)c1nc2ccccc2s1)c1ccccc1
inactive: RXF 393 17.7 µM | SF-539 2.14 µM | M19-MEL 4.72 µM | A498 17.1 µM | HCT-116 8.2 µM | UACC-257 5.18 µM | SNB-75 5.48 µM | OVCAR-4 5.08 µM | OVCAR-3 2.78 µM | UACC-62 2.37 µM | LOX IMVI 4.21 µM | OVCAR-5 17.2 µM | M14 3.42 µM | HCC 2998 14.7 µM | NCI-H23 11.6 µM | NCI-H460 4.25 µM | SW-620 3.84 µM

Cc1nc2c(nc1C)C(=O)c1cc(O)ccc1C2=O
inactive: RXF 393 > 100 µM | SF-539 > 81.1 µM | M19-MEL 8.13 µM | A498 > 69.8 µM | HCT-116 77.6 µM | UACC-257 > 54.6 µM | SNB-75 > 100 µM | OVCAR-4 > 85.5 µM | OVCAR-3 29.3 µM | UACC-62 22.3 µM | LOX IMVI 53.1 µM | OVCAR-5 > 100 µM | M14 > 77.6 µM | HCC 2998 > 67.6 µM | NCI-H23 > 100 µM | NCI-H460 38.2 µM | SW-620 61.4 µM

Cc1c(C#N)c(=O)[nH]c(=O)n1CCN1CCN(C(=O)NCCCCCCNC(=O)N2CCN(CCn3c(C)c(C#N)c(=O)[nH]c3=O)CC2)CC1
inactive: RXF 393 > 100 µM | SF-539 > 100 µM | M19-MEL > 100 µM | A498 > 100 µM | HCT-116 > 100 µM | UACC-257 > 100 µM | SNB-75 > 100 µM | OVCAR-4 > 100 µM | OVCAR-3 > 100 µM | UACC-62 > 100 µM | LOX IMVI > 100 µM | M14 > 100 µM | HCC 2998 > 100 µM | NCI-H23 > 100 µM | NCI-H460 > 100 µM | SW-620 > 100 µM

Cc1cc(C)c(S(=O)(=O)ONC(=O)OC(C)(C)C)c(C)c1
inactive: RXF 393 > 100 µM | SF-539 > 100 µM | M19-MEL > 100 µM | A498 > 100 µM | HCT-116 > 100 µM | UACC-257 > 100 µM | SNB-75 > 100 µM | OVCAR-4 > 100 µM | OVCAR-3 > 100 µM | UACC-62 > 100 µM | LOX IMVI > 100 µM | OVCAR-5 > 100 µM | M14 > 100 µM | HCC 2998 > 100 µM | NCI-H23 > 100 µM | NCI-H460 > 100 µM | SW-620 > 100 µM

O=[N+]([O-])c1ccc2nc(/C(=N/Nc3ccccc3)C(O)c3ccco3)c(O)nc2c1 (stereo not drawn)
inactive: RXF 393 29.5 µM | SF-539 50.2 µM | M19-MEL 73.5 µM | A498 > 100 µM | HCT-116 > 100 µM | UACC-257 > 100 µM | SNB-75 > 100 µM | OVCAR-4 > 100 µM | UACC-62 45.7 µM | LOX IMVI 72.4 µM | M14 > 100 µM | HCC 2998 > 100 µM | NCI-H460 > 100 µM | SW-620 > 100 µM

NC(=O)C(=O)C1CCC2=C(Sc3ccccc3N2)C1=O (stereo not drawn)
inactive: RXF 393 > 100 µM | SF-539 > 100 µM | M19-MEL > 100 µM | A498 > 100 µM | HCT-116 > 100 µM | UACC-257 > 100 µM | SNB-75 > 100 µM | OVCAR-4 > 100 µM | OVCAR-3 > 100 µM | UACC-62 > 100 µM | LOX IMVI > 100 µM | OVCAR-5 > 100 µM | M14 > 100 µM | HCC 2998 > 100 µM | NCI-H23 > 100 µM | NCI-H460 > 100 µM | SW-620 > 100 µM

CN(C)c1nc(N(C)C)n2nc(-c3ccccc3[N+](=O)[O-])nc2n1
inactive: RXF 393 > 100 µM | SF-539 33 µM | M19-MEL > 100 µM | A498 > 100 µM | HCT-116 35.6 µM | UACC-257 > 100 µM | SNB-75 > 100 µM | OVCAR-4 > 100 µM | OVCAR-3 > 100 µM | UACC-62 > 100 µM | LOX IMVI > 100 µM | OVCAR-5 > 100 µM | M14 > 100 µM | HCC 2998 > 100 µM | NCI-H23 > 100 µM | NCI-H460 78.7 µM | SW-620 10.1 µM

C[Si](C)(C)/C=C/CCC(C=O)(CCCl)c1ccccc1 (stereo not drawn)
inactive: RXF 393 22.4 µM | SF-539 31.2 µM | M19-MEL 27.7 µM | A498 64.1 µM | HCT-116 14.1 µM | UACC-257 26.2 µM | SNB-75 35.2 µM | OVCAR-3 16.7 µM | UACC-62 21.7 µM | LOX IMVI 19.1 µM | OVCAR-5 25.5 µM | M14 28.3 µM | HCC 2998 29.6 µM | NCI-H23 21.8 µM | NCI-H460 31.6 µM | SW-620 28.6 µM

Cc1cccc(-c2nnc3s/c(=C\c4ccc(N(C)C)cc4)c(=O)n23)c1
inactive: RXF 393 > 100 µM | SF-539 > 100 µM | M19-MEL > 100 µM | A498 > 100 µM | HCT-116 > 100 µM | UACC-257 > 100 µM | SNB-75 > 100 µM | OVCAR-4 > 100 µM | OVCAR-3 > 100 µM | UACC-62 > 100 µM | LOX IMVI > 100 µM | OVCAR-5 > 100 µM | M14 > 100 µM | HCC 2998 > 100 µM | NCI-H23 > 100 µM | NCI-H460 > 100 µM | SW-620 > 100 µM

O=C(Nc1ccc(F)cc1)C(=O)C(C1OC(=O)c2ccccc21)[N+](=O)[O-] (stereo not drawn)
inactive: RXF 393 > 100 µM | SF-539 > 100 µM | M19-MEL > 100 µM | A498 > 100 µM | HCT-116 > 100 µM | UACC-257 > 100 µM | SNB-75 > 100 µM | OVCAR-4 > 100 µM | OVCAR-3 > 100 µM | UACC-62 > 100 µM | LOX IMVI > 100 µM | OVCAR-5 > 100 µM | M14 > 100 µM | HCC 2998 > 100 µM | NCI-H23 > 100 µM | NCI-H460 > 100 µM | SW-620 > 100 µM

COc1ccccc1NC(=O)C1=C(C)NC(C)=C(C(=O)Nc2ccccc2OC)C1c1ccc(C)cc1
inactive: RXF 393 35 µM | SF-539 > 100 µM | M19-MEL 42.5 µM | A498 23.3 µM | HCT-116 29.9 µM | UACC-257 51.5 µM | SNB-75 58.5 µM | OVCAR-4 43.4 µM | OVCAR-3 > 100 µM | UACC-62 65.3 µM | LOX IMVI > 100 µM | OVCAR-5 70.3 µM | M14 64.6 µM | HCC 2998 97.5 µM | NCI-H23 94.8 µM | NCI-H460 31.8 µM | SW-620 > 100 µM

COC1=CC(=O)[C@]2(C)[C@H](C1=O)C(C)[C@H]2c1ccc(OC)cc1 (stereo partly drawn)
inactive: RXF 393 > 100 µM | SF-539 > 100 µM | M19-MEL > 100 µM | A498 > 100 µM | UACC-257 91.6 µM | SNB-75 > 100 µM | OVCAR-4 > 100 µM | OVCAR-3 > 100 µM | UACC-62 > 100 µM | LOX IMVI > 100 µM | OVCAR-5 > 100 µM | M14 > 100 µM | HCC 2998 > 100 µM | NCI-H23 > 100 µM | NCI-H460 > 100 µM | SW-620 > 100 µM
